In ChEMBL document CHEMBL2073897, “Major role of organic anion transporter 3 in the transport of indoxyl sulfate in the kidney” (Kidney Int, 2002) one finds activity, Activity and Km data, which are given here for seven molecules.

Data set [1] addresses T1, Organic anion transporter 3 (OAT3) (Rattus norvegicus, UniProt Q9R1U7).
T1 sequence (Q9R1U7 whole entry): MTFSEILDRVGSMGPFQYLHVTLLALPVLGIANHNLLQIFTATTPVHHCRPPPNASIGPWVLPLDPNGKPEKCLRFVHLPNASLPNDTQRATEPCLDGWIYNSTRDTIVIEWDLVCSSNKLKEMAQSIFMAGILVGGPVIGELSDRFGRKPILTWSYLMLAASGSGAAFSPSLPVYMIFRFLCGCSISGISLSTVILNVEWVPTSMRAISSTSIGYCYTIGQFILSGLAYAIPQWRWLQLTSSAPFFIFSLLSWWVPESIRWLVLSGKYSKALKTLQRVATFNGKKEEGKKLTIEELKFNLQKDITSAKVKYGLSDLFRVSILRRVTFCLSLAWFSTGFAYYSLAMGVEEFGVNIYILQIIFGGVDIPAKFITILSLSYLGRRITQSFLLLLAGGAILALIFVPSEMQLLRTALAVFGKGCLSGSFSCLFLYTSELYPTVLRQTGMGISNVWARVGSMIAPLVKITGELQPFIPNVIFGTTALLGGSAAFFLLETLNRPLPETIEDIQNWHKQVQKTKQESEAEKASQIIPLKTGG
Briefly: TP_TRANSPORTER: inhibition of Indoxyl sulfate uptake (indoxyl sulfate: 2 uM, 4-Hydroxyphenylacetic acid: 1000 uM) in Xenopus laevis oocytes. In kind it is functional, cell-based, Oocyte. The arrangement: scale not given: the % may be the effect or the level left. The note with it: probe indoxyl sulfate (2 uM), read-out: Activity.

Data set [2] has as its target T1, Organic anion transporter 3 (OAT3). Briefly: TP_TRANSPORTER: inhibition of Indoxyl sulfate uptake (indoxyl sulfate: 2 uM, 4-Hydroxybenzoic acid: 1000 uM) in Xenopus laevis oocytes. In kind it is functional, cell-based, Oocyte. On the set-up: scale not given: the % may be the effect or the level left. The settings on record: probe indoxyl sulfate (2 uM), read-out: Activity.

For data set [3] the target is unchanged. In words: TP_TRANSPORTER: inhibition of Indoxyl sulfate uptake (indoxyl sulfate: 2 uM, Indoleacetic acid: 1000 uM) in Xenopus laevis oocytes. In kind it is functional, cell-based, Oocyte. The note with it: probe indoxyl sulfate (2 uM), read-out: Activity. On the set-up: scale not given: the % may be the effect or the level left.
Data set [4] has the same target. In words: TP_TRANSPORTER: inhibition of Indoxyl sulfate uptake (indoxyl sulfate: 2 uM, CMPF: 1000 uM) in Xenopus laevis oocytes. In kind it is functional, cell-based, Oocyte. On the set-up: scale not given: the % may be the effect or the level left. The settings on record: probe indoxyl sulfate (2 uM), read-out: Activity.
Data set [5] concerns the target T2, Organic anion transporter 3 (Rattus norvegicus, UniProt Q9R1U7).
T2 sequence (Q9R1U7 whole entry): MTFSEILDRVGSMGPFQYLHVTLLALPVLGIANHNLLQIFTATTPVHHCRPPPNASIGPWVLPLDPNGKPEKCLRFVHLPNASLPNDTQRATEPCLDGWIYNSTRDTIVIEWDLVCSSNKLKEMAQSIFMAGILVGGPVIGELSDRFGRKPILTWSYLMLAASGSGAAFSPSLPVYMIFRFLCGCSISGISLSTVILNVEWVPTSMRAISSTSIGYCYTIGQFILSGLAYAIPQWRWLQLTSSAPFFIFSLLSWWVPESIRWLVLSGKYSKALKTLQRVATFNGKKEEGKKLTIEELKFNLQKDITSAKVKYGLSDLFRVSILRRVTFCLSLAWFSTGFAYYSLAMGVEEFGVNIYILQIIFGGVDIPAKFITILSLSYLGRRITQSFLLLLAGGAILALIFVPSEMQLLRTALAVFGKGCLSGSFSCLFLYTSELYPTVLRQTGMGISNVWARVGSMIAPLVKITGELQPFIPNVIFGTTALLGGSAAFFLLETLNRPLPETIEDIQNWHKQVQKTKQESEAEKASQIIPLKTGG
Briefly: TP_TRANSPORTER: inhibition of Indoxyl sulfate uptake (indoxyl sulfate: 2 uM, Hippurate: 1000 uM) in Xenopus laevis oocytes. In kind it is functional, cell-based. The arrangement: scale not given: the % may be the effect or the level left. The note with it: oocyte.

The target in data set [6] is T1, Organic anion transporter 3 (OAT3). In words: TP_TRANSPORTER: inhibition of Indoxyl sulfate uptake (indoxyl sulfate: 2 uM, 2-Hydroxycinnamic acid: 1000 uM) in Xenopus laevis oocytes. In kind it is functional, cell-based, Oocyte. The note with it: probe indoxyl sulfate (2 uM), read-out: Activity. The arrangement: scale not given: the % may be the effect or the level left.

Substrate in data set [7]: O=S(=O)(O)Oc1c[nH]c2ccccc12
In words: TP_TRANSPORTER: uptake in Xenopus laevis oocytes. In kind it is functional, cell-based, Oocyte.

On to `O=C(O)Cc1ccc(O)cc1`, for which the activity at 1000 µM in data set [1] is 29.7%.
With `O=C(O)c1ccc(O)cc1` [PARABEN], the activity at 1000 µM in data set [2] is 22.1%.
As to `CC(=O)Oc1c[nH]c2ccccc12` [INDOLE ACETATE], the activity at 1000 µM in data set [3] stood at 51.2%.
Turning to `CCCc1oc(CCC(=O)O)c(C(=O)O)c1C`, in data set [4], the activity at 1000 µM was 8.38%.
For `O=C(O)CNC(=O)c1ccccc1` [HIPPURIC ACID], the Activity in data set [5] amounted to 24.6%.
On to `O=C(O)/C=C/c1ccccc1O` [O-COUMARIC ACID], for which the activity at 1000 µM in data set [6] turned out to be 39.5%.

B1: Organic anion transporter 3 (Rattus norvegicus) (protein)
chain: MTFSEILDRVGSMGPFQYLHVTLLALPVLGIANHNLLQIFTATTPVHHCRPPPNASIGPWVLPLDPNGKPEKCLRFVHLPNASLPNDTQRATEPCLDGWIYNSTRDTIVIEWDLVCSSNKLKEMAQSIFMAGILVGGPVIGELSDRFGRKPILTWSYLMLAASGSGAAFSPSLPVYMIFRFLCGCSISGISLSTVILNVEWVPTSMRAISSTSIGYCYTIGQFILSGLAYAIPQWRWLQLTSSAPFFIFSLLSWWVPESIRWLVLSGKYSKALKTLQRVATFNGKKEEGKKLTIEELKFNLQKDITSAKVKYGLSDLFRVSILRRVTFCLSLAWFSTGFAYYSLAMGVEEFGVNIYILQIIFGGVDIPAKFITILSLSYLGRRITQSFLLLLAGGAILALIFVPSEMQLLRTALAVFGKGCLSGSFSCLFLYTSELYPTVLRQTGMGISNVWARVGSMIAPLVKITGELQPFIPNVIFGTTALLGGSAAFFLLETLNRPLPETIEDIQNWHKQVQKTKQESEAEKASQIIPLKTGG
For B1, in data set [7], the Km amounted to 158 µM.
